# Measurements as given in PMC6934184, “Selective DNA-PKcs inhibition extends the therapeutic index of localized radiotherapy and chemotherapy” (The Journal of Clinical Investigation, 2019).
# Biological target: T1, LYN B (Homo sapiens, UniProt P07948)
# T1 construct: purchased Thermo Fisher Scientific (Life Technologies) SelectScreen
# Test: SelectScreen Z'LYTE
# Type: biochemical
# Method: The in vitro kinase selectivity of NU5455 was determined using the SelectScreen Broad Assay Panel (Thermo Fisher Scientific) involving activity and binding assays (Supplemental Table 1). […] Class IA PI3Ks were measured using the p85α subunit.
# Kinase [ATP] % Assay Kinase [ATP] % Assay Kinase [ATP] % Assay Kinase [ATP] % Assay […]
# CHEK1 (CHK1) Km app 9.3 Z LYN B Km app 3.0 Z TGFBR2 n/a -0.1 L PDGFRA D842V Km app -5.0 Z […]
# SGK (SGK1) Km app 8.5 Z MAP4K2 (GCK) Km app 2.7 Z TLK2 n/a -0.3 L STK38 (NDR) n/a -5.9 L
# MERTK (cMER) Km app 8.3 Z CDK2/cyclin A Km app 2.7 Z TGFBR1 (ALK5) n/a -0.4 L MATK (HYL) Km app -6.3 Z
# FYN Km app 8.3 Z EPHA1 Km app 2.7 Z CLK3 Km app -0.5 Z ABL1 E255K Km app -6.6 Z
# TEC n/a 8.1 L CDK2/cyclin E1 n/a 2.7 L MAP3K14 (NIK) n/a -0.5 L STK17A (DRAK1) n/a -6.6 L
# KIT V654A n/a 8.1 L TESK2 n/a 2.7 L AKT3 (PKB gamma) Km app -0.5 Z JAK2 JH1 JH2 Km app -6.7 Z
# ROS1 Km app 8.0 Z SPHK1 Km app 2.7 A MAP3K9 (MLK1) Km app -0.5 Z PRKACB (PRKAC beta) n/a -6.8 L
# FGFR3 K650E Km app 7.9 Z AMPK A2/B1/G1 Km app 2.6 Z IKBKB (IKK beta) Km app -0.6 Z PDGFRA (PDGFR alpha) Km app -6.8 Z
# RAF1 (cRAF) Y340D Y341D 100 7.9 Z DYRK3 Km app 2.6 Z CAMK2A (CaMKII alpha) Km app -0.6 Z NEK9 Km app -7.2 Z
# PI4KA (PI4K alpha) 10 7.8 A CSNK1D (CK1 delta) Km app 2.6 Z PRKCB1 (PKC beta I) Km app -0.7 Z PDK1 Km app -7.3 Z
# HIPK2 Km app 7.8 Z ACVR2A n/a 2.5 L TTK n/a -0.7 L RPS6KB1 (p70S6K) Km app -7.8 Z […]
# T1 sequence (P07948 1-491 isoform P07948-2): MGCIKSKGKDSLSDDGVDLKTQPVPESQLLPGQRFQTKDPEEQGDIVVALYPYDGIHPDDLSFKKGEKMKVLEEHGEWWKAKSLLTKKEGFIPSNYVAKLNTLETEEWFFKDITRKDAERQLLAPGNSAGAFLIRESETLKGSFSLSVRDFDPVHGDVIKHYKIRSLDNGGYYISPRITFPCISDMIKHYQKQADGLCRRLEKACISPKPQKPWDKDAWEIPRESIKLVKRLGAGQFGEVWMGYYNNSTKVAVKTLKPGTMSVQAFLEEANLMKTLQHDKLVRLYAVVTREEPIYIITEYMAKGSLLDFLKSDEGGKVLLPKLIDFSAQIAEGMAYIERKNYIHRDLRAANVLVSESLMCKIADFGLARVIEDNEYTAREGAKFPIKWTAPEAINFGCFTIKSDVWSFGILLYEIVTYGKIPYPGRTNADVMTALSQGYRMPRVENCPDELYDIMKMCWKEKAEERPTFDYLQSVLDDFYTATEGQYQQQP
smiles,measurement,value
CN(C(=O)CN1CCOCC1)c1ccc2sc3c(-c4cccc5c(=O)cc(N6CC7CCC(C6)O7)oc45)cccc3c2c1 [NU5455],inhibition at 1 µM,3%
